SMILES strings stand for the structures.

A short description of this assay: Displacement of [3H]-quipazine from 5-HT3 receptor in mouse/rat NG108-15 cells. It is filed as cell-based.

As a reminder, the pKi is the Ki on a negative log10 scale, so that one unit is a factor of ten. Regarding `O=C1c2cccc3c2[C@H](CCC3)CN1[C@@H]1CN2CCC1CC2` [PALONOSETRON], the pKi is on record as 10.5.
